This is an account of results in US9133165B2, “Sulfonic acid salts of heterocyclylamide-substituted imidazoles” (AICURIS GMBH & CO. KG, priority 2011, dated 2015).

Data set [1] can be described thus: Solubility under simulated conditions in the human stomach. The conditions noted are these: aqueous sodium chloride solution (0.2% by weight), pH 1.2 with hydrochloric acid, stirred for 5 hours. It counts as physicochemical. The method, then: The samples were then treated as described above, and the amount of free base in solution is determined by means of HPLC.

Data set [2] has as its system HCMV AD 169 RV-HG. The experiment in a line: HCMV fluorescence reduction test. The data set is classed as cell-based, human cytomegalovirus. As for the experimental part: The test compounds are used as 50 millimolar (mM) solutions in dimethyl sulfoxide (DMSO). As reference compounds, e.g., Ganciclovir®, Foscarnet®, Cidofovir® or else the compound of Example 9A can be used. One day before the start of the test, 1.5×10^4 human foreskin fibroblasts (NHDF cells)/well are sowed in 200 μl of cell culture medium in the wells B2-G11 of 96-well plates (black with a translucent bottom). The wells at the edge position of each 96-well plate are filled only with 200 μl of medium to avoid edge effects. On the day of the test, the cell culture medium is suctioned off from the wells B2-G11 of each 96-well plate and replaced by 100 μl of virus suspension (multiplicity of infection (MOI): 0.1-0.2). The virus that is used is a recombinant HCMV, which has integrated an expression cassette for the green fluorescence protein (GFP) in the virus genome (HCMV AD 169 RV-HG, E. M. Borst, K. Wagner, A. Binz, B. Sodeik, and M. Messerle, 2008, J. Virol. 82: 2065-2078). After an incubation time of 2 hours at 37° C. and 5% CO2, the virus inoculate is suctioned off, and all wells except for the wells in Column 3 are filled with 200 μl of cell culture medium. Column 2 is not further treated and serves as a virus control. The wells in Column 3 are filled in each case in double determination with 300 μl of test substance (diluted in cell culture medium). The concentration of the respective antiviral substance in Column 3 is ˜ the 27× concentration of the EC50 value that is expected in each case. The test substance in Column 3 is diluted in 8 steps 1:3 over the 96-well plate by in each case 100 μl of a column being transferred into the right column in each case—and being mixed there with the existing 200 μl of cell culture medium. […] Then, the GFP intensity of each well of a 96-well plate is determined by means of a fluorescence reading device (FluoBox; Bayer Technology Services GmbH; Filter settings: GFP, Ex 480 nm, Em 520 nm). The EC50 of an anti-HCMV substance can be determined from the thus obtained measurement values: […]

Data set [3] in a line: Solubility studies in H2O. It counts as physicochemical. As to conditions: water, thermodynamic from solid, 20 mg in 1 ml of H2O, stirred overnight at 25° C., filtrate analyzed by HPLC. The method, then: 1 ml of H2O each is added, and the HPLC glasses are sealed. The suspensions that are produced are stirred overnight at 25° C. To estimate the amount of dissolved substance, the suspensions are filtered via pipette microfilters, and the filtrates that are obtained are diluted 1:4 and analyzed by means of HPLC. The HPLC analysis was carried out on a […] Luna RP18 (100A)-column with the following dimensions: 5 μm 50×4.6 mm with use of an isocratic mixture of acetonitrile and H2O+0.1% TFA in the ratio 3:7.

Data set [4] is described as follows: Hygroscopy. The conditions noted are these: approximately 46% relative atmospheric humidity and 24° C., storage time approximately 2 days. It counts as physicochemical. As for the experimental part: By storing the salt of Example 1 in pure form at approximately 46% relative atmospheric humidity and 24° C., the hygroscopy of the salts according to the invention was measured.

Setting [5] is: Human betaherpesvirus 5, AD169, NHDF, 168 h, read-out: EC50 (GFP-RA), virus strain AD169 RV-HG in NHDF cells, 7 days, GFP fluorescence.

In brackets after ≈: the same amount, converted by molar mass. Where two headings read alike, the source gives them in different places. A value given as a limit tells only on which side of the number the result lay.

As to `Cc1ccc(N2CCN(C(=O)c3nc(NC(=O)Nc4ccc(OC(F)(F)F)cc4)cn3C)CC2)nc1` [Example 9A, N-(1-Methyl-2-{[4-(5-methylpyridin-2-yl)piperazin-1-yl]carbonyl}-1H-imidazol-4-yl)-N′-[4-(trifluoromethoxy)phenyl]urea], the “Amount of Dissolved Free Base” value in data set [1] was 0.065 mg/mL. The EC50 in data set [2] (setting [5]) was found to be 1.5 nM. In data set [3], this compound returned a solubility of 4 µg/mL (≈ 7.94 µM).
On to `CS(=O)(=O)O.CS(=O)(=O)O.Cc1ccc(N2CCN(C(=O)c3nc(NC(=O)Nc4ccc(OC(F)(F)F)cc4)cn3C)CC2)nc1` [Example 1, N-(1-Methyl-2-{[4-(5-methylpyridin-2-yl)piperazin-1-yl]-carbonyl}-1H-imidazol-4-yl)-N′-[4-trifluoromethoxyphenyl]urea dimesylate], for which the “weight increase (hygroscopy)” value in data set [4] is “less than 0.11%”. The “Amount of Dissolved Free Base” value in data set [1] is 0.103 mg/mL. Also, the 50% effective concentration (EC50) in data set [2] (read-out: EC50 (GFP-RA), virus strain AD169 RV-HG in NHDF cells, 7 days, GFP fluorescence, dimesylate) came out at 1.8 nM. Further, the solubility in data set [3] was over 9700 µg/mL.
Turning to `Nc1nc(O)c2ncn(COC(CO)CO)c2n1` [Ganciclovir, reference compound], the EC50 in data set [2] (setting [5]) is 3200 nM.

By EC50 is commonly meant the concentration that produces a half-maximal response. In general, solubility refers to how much of the substance goes into solution per volume. High values mean a readily soluble substance, low ones a poorly soluble substance.
